ChEMBL document CHEMBL1132332, “A novel acetylated analogue of dynorphin A-(1-11) amide as a kappa-opioid receptor antagonist” (J Med Chem, 1999)
Square brackets hold non-standard residues; d marks the D form. Peptide text beside a SMILES is read from it.

Assays:
Mu-type opioid receptor = Mu-type opioid receptor (Homo sapiens, UniProt P35372); test: The compound was tested for binding affinity against Opioid receptor mu 1 by using [3H]DAMGO as a radioligand
[1] = target: Delta-type opioid receptor (Homo sapiens, UniProt P41143); test: The compound was tested for binding affinity against Opioid receptor delta 1 by using [3H]- DPDPE as a radioligand
Chain of Delta-type opioid receptor (P41143 whole entry): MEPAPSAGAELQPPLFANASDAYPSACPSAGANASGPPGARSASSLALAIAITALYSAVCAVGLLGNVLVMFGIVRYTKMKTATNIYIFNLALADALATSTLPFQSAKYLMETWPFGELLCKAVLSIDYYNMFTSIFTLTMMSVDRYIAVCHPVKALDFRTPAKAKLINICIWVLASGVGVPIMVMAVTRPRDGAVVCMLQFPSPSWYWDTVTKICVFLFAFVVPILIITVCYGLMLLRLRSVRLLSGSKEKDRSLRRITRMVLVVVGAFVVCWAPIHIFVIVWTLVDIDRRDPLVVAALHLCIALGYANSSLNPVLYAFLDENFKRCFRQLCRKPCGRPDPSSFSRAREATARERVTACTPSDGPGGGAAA

[2] = target: Kappa-type opioid receptor (Homo sapiens, UniProt P41145); test: The compound was tested for binding affinity against Opioid receptor kappa 1 by using [3H]Diprenorphine as a radioligand
Chain of Kappa-type opioid receptor (P41145 whole entry): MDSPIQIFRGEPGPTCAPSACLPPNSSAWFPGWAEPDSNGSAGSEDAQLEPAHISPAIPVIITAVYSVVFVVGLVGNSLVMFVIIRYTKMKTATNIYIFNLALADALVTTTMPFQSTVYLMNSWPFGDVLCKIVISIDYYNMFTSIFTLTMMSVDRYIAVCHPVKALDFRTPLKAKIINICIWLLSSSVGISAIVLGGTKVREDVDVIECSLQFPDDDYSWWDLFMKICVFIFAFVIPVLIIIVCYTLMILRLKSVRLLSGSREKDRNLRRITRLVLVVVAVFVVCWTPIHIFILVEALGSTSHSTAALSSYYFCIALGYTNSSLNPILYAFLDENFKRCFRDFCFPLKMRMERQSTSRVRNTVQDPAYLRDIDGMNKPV

Chain of Mu-type opioid receptor (P35372 whole entry): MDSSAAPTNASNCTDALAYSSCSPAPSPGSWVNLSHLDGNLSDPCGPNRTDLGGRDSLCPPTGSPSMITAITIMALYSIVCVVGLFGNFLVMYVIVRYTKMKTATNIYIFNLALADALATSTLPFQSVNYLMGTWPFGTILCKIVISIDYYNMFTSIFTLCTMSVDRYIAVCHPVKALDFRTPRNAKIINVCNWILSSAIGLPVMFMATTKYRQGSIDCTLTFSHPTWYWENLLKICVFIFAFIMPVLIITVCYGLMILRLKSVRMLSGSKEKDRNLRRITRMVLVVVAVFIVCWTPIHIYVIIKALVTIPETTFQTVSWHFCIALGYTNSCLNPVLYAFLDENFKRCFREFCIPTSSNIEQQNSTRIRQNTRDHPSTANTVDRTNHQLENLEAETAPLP

| Structure (SMILES) | Ki (Mu-type opioid receptor) | Ki [1] | Ki [2] |
| --- | --- | --- | --- |
| CC(C)C[C@H](NC(=O)[C@H](Cc1ccccc1)NC(=O)CNC(=O)CNC(=O)[C@@H](N)Cc1ccc(O)cc1)C(=O)N[C@@H](CCCN=C(N)N)C(=O)N[C@@H](CCCN=C(N)N)C(=O)N[C@H](C)C(=O)N[C@@H](CCCN=C(N)N)C(=O)N1CCC[C@H]1C(=O)N[C@@H](CCCCN)C(N)=O | 1.97 nM | 0.0122 µM | 0.19 nM |
| CC(=O)N[C@@H](Cc1ccc(O)cc1)C(=O)N[C@@H](CCCCN)C(=O)N[C@@H](Cc1c[nH]c2ccccc12)C(=O)N[C@@H](Cc1c[nH]c2ccccc12)C(=O)N[C@@H](CC(C)C)C(=O)N[C@@H](CCCN=C(N)N)C(=O)N[C@@H](CCCN=C(N)N)C(=O)N[C@H](C)C(=O)N[C@@H](CCCN=C(N)N)C(=O)N1CCC[C@H]1C(=O)N[C@@H](CCCCN)C(N)=O (Ac-YKWWLRR[dA]RPK-NH2) | 251 nM | 5.32 µM | 19.8 nM |
| CC(=O)N[C@@H](Cc1ccc(O)cc1)C(=O)N[C@@H](CCCCN)C(=O)N[C@@H](Cc1c[nH]c2ccccc12)C(=O)N[C@@H](Cc1c[nH]c2ccccc12)C(N)=O (Ac-YKWW-NH2) | 3590 nM | 3.48 µM | 1370 nM |
